Reference: paper PMC9610465, “The Inhibition of α-Glucosidase, α-Amylase and Protein Glycation by Phenolic Extracts of Cotoneaster bullatus, Cotoneaster zabelii, and Cotoneaster integerrimus Leaves and Fruits: Focus on Anti-Hyperglycemic Activity and Kinetic Parameters” (Molecules, 2022)
Values after ≈ are worked out from the molar mass of the structure shown.

Assays:
[1] = system: bovine serum albumin (BSA); test: Protein glycation inhibitory assay (BSA–fructose model); type: biochemical
Protocol: The ability of the plant extracts/compounds to inhibit fructose-induced protein glycation was determined according to a method previously published with minor modifications. […] Briefly, fructose solution (600 µL) was mixed with BSA (600 µL) and 600 µL tested extracts/compounds at different concentrations and then the reaction mixture was incubated in the capped amber vials in the dark at 37 °C for six days.

α-glucosidase = conditions: cited from earlier work
α-amylase = conditions: earlier studies; cited from earlier work
[2] = biological target: T1, Porcine pancreatic α-amylase (Sus scrofa, UniProt P00690); test: α-Amylase inhibitory assay (potato starch, DNS); type: biochemical; conditions: mean ± SD (n = 3)
T1 construct: purchased Sigma-Aldrich
T1 sequence (P00690 16-511): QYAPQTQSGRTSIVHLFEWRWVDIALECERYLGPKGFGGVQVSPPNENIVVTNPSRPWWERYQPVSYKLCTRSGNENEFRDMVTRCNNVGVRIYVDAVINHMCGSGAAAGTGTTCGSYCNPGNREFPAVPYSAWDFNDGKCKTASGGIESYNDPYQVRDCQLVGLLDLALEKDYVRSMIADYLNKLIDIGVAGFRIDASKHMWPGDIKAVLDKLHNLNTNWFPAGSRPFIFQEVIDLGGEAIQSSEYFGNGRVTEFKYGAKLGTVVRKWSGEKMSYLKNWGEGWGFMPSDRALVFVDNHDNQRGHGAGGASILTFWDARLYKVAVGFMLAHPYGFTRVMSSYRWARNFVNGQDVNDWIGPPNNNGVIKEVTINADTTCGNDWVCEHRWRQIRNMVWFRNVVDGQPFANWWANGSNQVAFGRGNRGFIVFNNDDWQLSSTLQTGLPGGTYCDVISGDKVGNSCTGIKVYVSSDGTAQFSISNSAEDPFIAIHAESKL

[3] = BSA–fructose model, 37 °C, six days, mean ± SD (n = 3)

Row | Compound | IC50 Protein Glycation [1, 3] | type of α-glucosidase inhibition (α-glucosidase) | IC50 [2] [µM] | further results
1 | N=C(N)NN [AG, aminoguanidine] | 71.09 ± 4.20 ^D µg/mL |  |  | IC50 Protein Glycation ([1]; BSA–fructose model, 37 °C, six days, mean ± SD (n = 3), listed as aminoguanidine): 71.1 µg/mL (≈ 960 µM)
2 | C[C@H]1O[C@H](O[C@H]2[C@H](O)[C@@H](O)[C@@H](O[C@H]3[C@H](O)[C@@H](O)C(O)O[C@@H]3CO)O[C@@H]2CO)[C@H](O)[C@@H](O)[C@@H]1N[C@H]1C=C(CO)[C@@H](O)[C@H](O)[C@H]1O (stereo partly shown) [AR, acarbose] |  | competitively interacts |  | type of α-amylase inhibition (α-amylase): mixed type
3 | Oc1cc(O)c2c(c1)O[C@H](c1ccc(O)c(O)c1)[C@H](O)C2 [ECA, (–)-epicatechin] | 8.79 ± 0.13 ^A, B µg/mL | mixed-type inhibitors | > 689 | 
4 | O=c1c(O[C@@H]2O[C@H](CO)[C@H](O)[C@H](O)[C@H]2O[C@@H]2OC[C@@H](O)[C@H](O)[C@H]2O)c(-c2ccc(O)c(O)c2)oc2cc(O)cc(O)c12 [QPH, quercetin 3-O-β-D-(2″-O-β-D-xylopyranosyl)galactopyranoside] | 15.78 ± 1.14 ^A, B µg/mL |  |  | IC50 α-Amylase [2]: >400 µg/mL
5 | O=C(O)CC(OC(=O)/C=C/c1ccc(O)c(O)c1)C(=O)O (stereo not shown) [CAD, caffeoylmalic acid] |  |  | > 1350 | IC50 Protein Glycation ([1]; bovine, 6 days, pH 7.4): 17.26 ± 1.09 ^B µg/mL
6 | Oc1cc(O)c2c(c1)O[C@H](c1ccc(O)c(O)c1)[C@@H](O)[C@@H]2c1c(O)cc(O)c2c1O[C@H](c1ccc(O)c(O)c1)[C@@H](O)C2 [B3] |  |  |  | type of interaction with α-glucosidase (α-glucosidase): noncompetitive interaction
7 | Oc1cc(O)c2c(c1)O[C@H](c1ccc(O)c(O)c1)[C@@H](O)C2 [(+)-catechin] |  | mixed-type inhibitors |  | 
8 | C[C@@H]1O[C@@H](OC[C@H]2O[C@@H](Oc3c(-c4ccc(O)c(O)c4)oc4cc(O)cc(O)c4c3=O)[C@H](O)[C@@H](O)[C@@H]2O)[C@H](O)[C@H](O)[C@H]1O [rutin] |  | mixed type |  | 
9 | O=c1c(O[C@@H]2O[C@H](CO)[C@H](O)[C@H](O)[C@H]2O)c(-c2ccc(O)c(O)c2)oc2cc(O)cc(O)c12 [HP, hyperoside] | 14.34 ± 1.15 ^A, B µg/mL |  | > 861 | 
10 | Oc1cc(O)c2c(c1)O[C@H](c1ccc(O)c(O)c1)[C@H](O)[C@H]2c1c(O)cc(O)c2c1O[C@H](c1ccc(O)c(O)c1)[C@H](O)C2 [PB2, procyanidin B2] |  |  | > 346 | IC50 Protein Glycation ([1]; bovine, 6 days, pH 7.4): 2.20 ± 0.01 ^A µg/mL; type of interaction with α-glucosidase (α-glucosidase): noncompetitive interaction
